Data published in article PMC7459541, “Frog Skin-Derived Peptides Against Corynebacterium jeikeium: Correlation between Antibacterial and Cytotoxic Activities” (Antibiotics, 2020).
Where no end group is shown, it is not given here.

Experiments:
[1] = system: murine RAW 264.7 macrophages; details: 64 µM; cited from earlier work
C. jeikeium ATCC BAA-949 = type: cell-based, Corynebacterium jeikeium; details: lowest peptide concentration visually inhibiting growth after 20 h at 37 °C; TSB + 0.1% Tween 80; 2-fold serial dilutions; inoculum 2x10^6 CFU/mL diluted 1:1
Protocol: The MIC of the different AMPs against C. jeikeium ATCC BAA-949 were determined following the previously described procedure with some modifications. The bacterium was grown in TSB^+ up to an optical density (O.D.) of 0.8 (λ = 590 nm) and diluted to reach a concentration of 2× 10^6 colony forming units (CFU) per mL. Aliquots (50 µL) of this dilution were added to 50 µL of TSB^+ supplemented with 2-fold serial dilution of peptides previously dispensed in the wells of a 96 well plate. Controls were bacteria not treated with the peptides. […] MBC was defined as the lowest peptide concentration able to cause a ≥3 log reduction in the number of cells of the initial inoculum after 20 h of incubation.

| Substance | cell viability [1] | MIC (C. jeikeium ATCC BAA-949) [µM] |
| --- | --- | --- |
| GIFSKLAGKKIKNLLISGLKG-NH2 [Esc(1-21), esculentin-1a(1-21)] | about 50% | – |
| IIGPVLGLVGSALGGLLKKI-NH2 [Bombinin H2, bombinin H2] | – | 8 |
